This passage reports IC50 results from patent publication US10479780B2, “Aminopyrazole derivatives” (Chugai Seiyaku Kabushiki Kaisha, priority 2015, dated 2019).

Common to all, as to format: biochemical
For one assay, the target named is T1, human Yes1 enzyme (Homo sapiens, UniProt P07947).
T1 construct: made in house
Put plainly: Yes1 enzyme inhibitory activity (time-resolved fluorometry, biotinylated peptide phosphorylation). The note with it: read-out: YES_IC50. Summed up: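 Inhibition was expressed against a compound-free control to give IC50, using TR-FRET read-out (Eu-cryptate anti-pTyr antibody, streptavidin-XL665).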

The next assay concerns the target T2, human Src enzyme (Homo sapiens, UniProt P12931).
T2 construct: purchased Carna Biosciences, Inc. 08-173
Put plainly: Src enzyme inhibitory activity (time-resolved fluorometry, biotinylated peptide phosphorylation). The note with it: read-out: SRC_IC50. Summed up:
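Compounds were tested for blocking tyrosine phosphorylation of a biotinylated peptide substrate by recombinant human Src. Phosphorylated product was quantified by time-resolved fluorometry using europium cryptate and XL665 conjugates, and IC50 was calculated against the compound-free control.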

In another assay the target is T3, human Lck enzyme (Homo sapiens, UniProt P06239).
T3 construct: purchased Carna Biosciences, Inc. 08-170
T3 sequence (P06239 whole entry): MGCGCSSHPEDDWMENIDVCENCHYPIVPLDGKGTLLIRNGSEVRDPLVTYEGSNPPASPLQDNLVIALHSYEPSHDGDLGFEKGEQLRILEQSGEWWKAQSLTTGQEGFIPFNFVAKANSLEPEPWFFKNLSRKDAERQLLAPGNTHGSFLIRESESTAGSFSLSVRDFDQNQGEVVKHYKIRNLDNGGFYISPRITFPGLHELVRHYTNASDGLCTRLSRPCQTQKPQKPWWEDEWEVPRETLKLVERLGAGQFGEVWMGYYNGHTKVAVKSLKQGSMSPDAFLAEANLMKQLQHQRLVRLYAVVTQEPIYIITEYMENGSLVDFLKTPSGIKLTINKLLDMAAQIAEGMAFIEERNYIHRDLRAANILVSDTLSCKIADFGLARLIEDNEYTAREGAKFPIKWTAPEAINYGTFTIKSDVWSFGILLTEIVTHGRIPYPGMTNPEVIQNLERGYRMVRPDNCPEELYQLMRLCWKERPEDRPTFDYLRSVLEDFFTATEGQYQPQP
Nature of the assay: Lck enzyme inhibitory activity (time-resolved fluorometry, biotinylated peptide phosphorylation). The conditions noted are these: read-out: LCK_IC50. A digest of the protocol:
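Readout pairs a europium cryptate-labelled anti-phosphotyrosine antibody with XL665-streptavidin, measured by time-resolved fluorescence. IC50 derived from percent inhibition against untreated controls.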

[1] abbreviates: biotinylated peptide phosphorylation.

Read-outs that look alike come from different tables or passages of the source.

T2 sequence (P12931 whole entry): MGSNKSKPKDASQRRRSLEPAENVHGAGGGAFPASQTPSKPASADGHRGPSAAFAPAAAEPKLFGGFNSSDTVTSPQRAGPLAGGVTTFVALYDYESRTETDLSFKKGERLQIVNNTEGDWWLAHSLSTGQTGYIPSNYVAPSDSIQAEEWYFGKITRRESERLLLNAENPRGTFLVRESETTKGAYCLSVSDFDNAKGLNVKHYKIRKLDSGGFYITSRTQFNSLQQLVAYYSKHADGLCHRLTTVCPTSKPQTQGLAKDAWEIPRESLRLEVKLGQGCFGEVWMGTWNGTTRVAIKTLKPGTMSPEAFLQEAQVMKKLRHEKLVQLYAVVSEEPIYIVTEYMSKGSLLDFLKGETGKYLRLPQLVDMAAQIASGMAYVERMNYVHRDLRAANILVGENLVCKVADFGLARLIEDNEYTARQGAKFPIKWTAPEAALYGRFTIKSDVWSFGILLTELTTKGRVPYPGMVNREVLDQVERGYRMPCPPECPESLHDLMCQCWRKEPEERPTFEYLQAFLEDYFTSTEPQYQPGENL
T1 sequence (P07947 whole entry): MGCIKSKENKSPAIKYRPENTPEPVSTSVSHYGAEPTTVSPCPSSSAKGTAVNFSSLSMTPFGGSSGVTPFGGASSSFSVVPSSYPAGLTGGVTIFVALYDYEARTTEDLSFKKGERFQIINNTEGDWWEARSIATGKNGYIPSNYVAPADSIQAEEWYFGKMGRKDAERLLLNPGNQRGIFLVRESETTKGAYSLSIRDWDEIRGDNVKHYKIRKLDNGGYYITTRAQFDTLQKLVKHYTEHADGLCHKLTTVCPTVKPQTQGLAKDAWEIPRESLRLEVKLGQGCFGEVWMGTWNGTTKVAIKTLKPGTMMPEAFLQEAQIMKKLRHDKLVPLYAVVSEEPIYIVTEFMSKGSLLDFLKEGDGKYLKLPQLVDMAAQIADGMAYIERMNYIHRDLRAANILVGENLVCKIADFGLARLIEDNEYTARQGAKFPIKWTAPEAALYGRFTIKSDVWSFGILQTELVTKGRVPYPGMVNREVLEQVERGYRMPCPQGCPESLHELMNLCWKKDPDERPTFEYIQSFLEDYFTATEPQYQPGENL

Turning to `Cc1cc(Oc2ccccc2F)ccc1-n1ncc(C(=O)c2cc3cc(F)c(N4CC5(CCOCC5)NS4(=O)=O)cc3[nH]2)c1N` [Example 5-1-403, [5-amino-1-[4-(2-fluorophenoxy)-2-methylphenyl]pyrazol-4-yl]-[6-(2,2-dioxo-8-oxa-2λ6-thia-1.3-diazaspiro[4.5]decan-3-yl)-5-fluoro-1H-indol-2-yl]methanone], the IC50 is 0.98 nM at human Yes1 enzyme (setting [1]), 88 nM at human Src enzyme (setting [1]) and 8.6 nM on human Lck enzyme (setting [1]).

On to `CC(C)N1CCC(c2cc3cc(C(=O)c4cnn(-c5ccc(Oc6ccccc6Cl)cc5)c4N)[nH]c3cc2F)CC1` [Example 5-1-001, [5-amino-1-[4-(2-chlorophenoxy)phenyl]pyrazol-4-yl]-[6-fluoro-5-(1-propan-2-ylpiperidin-4-yl)-1H-indol-2-yl]methanone], for which the IC50 at human Yes1 enzyme was found to be 1.1 nM; on human Src enzyme, 7.6 nM; at human Lck enzyme, 2.9 nM.

Take `Cc1cc2cc(C(=O)c3cnn(-c4ccc(Oc5ccccc5F)c(C)c4C)c3N)[nH]c2cc1NS(C)(=O)=O` [Example 5-1-213, N-[2-[5-amino-1-[4-(2-fluorophenoxy)-2,3-dimethylphenyl]pyrazole-4-carbonyl]-5-methyl-1H-indol-6-yl]methanesulfonamide]: the IC50 turned out to be 9.8 nM at human Yes1 enzyme, 600 nM at human Src enzyme and 150 nM on human Lck enzyme.

Regarding `CC(=O)N1CCC(c2cc3[nH]c(C(=O)c4cnn(-c5cnc(Oc6c(F)cccc6F)cc5C)c4N)cc3cc2C)CC1` [Example 5-1-139, 1-[4-[2-[5-amino-1-[6-(2,6-difluorophenoxy)-4-methylpyridin-3-yl]pyrazole-4-carbonyl]-5-methyl-1H-indol-6-yl]piperidin-1-yl]ethanone], the IC50 on human Yes1 enzyme was 1.8 nM; at human Src enzyme, 23 nM; at human Lck enzyme, 25 nM.

On to `Cc1cc2cc(C(=O)c3cnn(-c4cnc(Oc5ccccc5C)cc4C)c3N)[nH]c2cc1NS(C)(=O)=O` [Example 4-2-065, N-[2-[5-amino-1-[4-methyl-6-(2-methylphenoxy)pyridin-3-yl]pyrazole-4-carbonyl]-5-methyl-1H-indol-6-yl]methanesulfonamide], for which the values for the IC50 on human Yes1 enzyme (setting [1]), at human Src enzyme (setting [1]) and on human Lck enzyme (setting [1]) were 2.2 nM, 44 nM and 18 nM, respectively.

On to `Cc1cc(Oc2c(F)cccc2F)ncc1-n1ncc(C(=O)c2cc3cc(OCC(F)F)c(C4CCN(C(=O)OC(C)(C)C)CC4)cc3[nH]2)c1N` [Example 5-1-069, tert-Butyl 4-[2-[5-amino-1-[6-(2,6-difluorophenoxy)-4-methylpyridin-3-yl]pyrazole-4-carbonyl]-5-(2,2-difluoroethoxy)-1H-indol-6-yl]piperidine-1-carboxylate], for which the IC50 turned out to be 18 nM at human Yes1 enzyme, 33 nM at human Src enzyme and 20 nM on human Lck enzyme.

With `Cc1cc2cc(C(=O)c3cnn(-c4c(C)cc(Oc5ccccc5F)cc4F)c3N)[nH]c2cc1NS(=O)(=O)CCCF` [Example 4-2-070, N-[2-[5-amino-1-[2-fluoro-4-(2-fluorophenoxy)-6-methylphenyl]pyrazole-4-carbonyl]-5-methyl-1H-indol-6-yl]-3-fluoropropane-1-sulfonamide], the values for the IC50 at human Yes1 enzyme (setting [1]), on human Src enzyme (setting [1]) and on human Lck enzyme (setting [1]) were 7.6 nM, 140 nM and 47 nM, respectively.

On to `Cc1cc(C)c(S(=O)(=O)Nc2cc3[nH]c(C(=O)c4cnn(-c5cnc(Oc6ccccc6F)cc5C)c4N)cc3cc2C)c(C)c1` [Example 5-1-461], for which the IC50 on human Yes1 enzyme (setting [1]) is 17 nM; at human Src enzyme (setting [1]), 3500 nM; at human Lck enzyme (setting [1]), 590 nM.

Consider `Cc1cc2cc(C(=O)c3cnn(-c4cnc(Oc5c(F)cccc5F)cc4C)c3N)[nH]c2cc1NS(=O)(=O)C1CCOC1` (stereo not drawn) [Example 5-1-281, N-[2-[5-amino-1-[6-(2,6-difluorophenoxy)-4-methylpyridin-3-yl]pyrazole-4-carbonyl]-5-methyl-1H-indol-6-yl]oxolane-3-sulfonamide], for which the IC50 at human Yes1 enzyme amounted to 1.9 nM; on human Src enzyme, 140 nM; at human Lck enzyme it was 27 nM.

Turning to `Cc1cc2cc(C(=O)c3cnn(-c4cnc(Oc5c(F)cccc5F)cc4C)c3N)[nH]c2cc1N1C(=O)NC2(CCN(C3COC3)CC2)C1=O` [Example 5-1-360, 3-[2-[5-amino-1-[6-(2,6-difluorophenoxy)-4-methylpyridin-3-yl]pyrazole-4-carbonyl]-5-methyl-1H-indol-6-yl]-8-(oxetan-3-yl)-1,3,8-triazaspiro[4.5]decane-2,4-dione], the IC50 on human Yes1 enzyme is 2.2 nM; at human Src enzyme, 19 nM; at human Lck enzyme, 6.3 nM.

On to `Cc1cc(Oc2ccccc2Cl)ncc1-n1ncc(C(=O)c2cc3cc(F)c(NS(C)(=O)=O)cc3[nH]2)c1N` [Example 4-2-033, N-[2-[5-amino-1-[6-(2-chlorophenoxy)-4-methylpyridin-3-yl]pyrazole-4-carbonyl]-5-fluoro-1H-indol-6-yl]methanesulfonamide], for which the IC50 at human Yes1 enzyme (setting [1]) was determined as 0.91 nM; on human Src enzyme (setting [1]) it was 49 nM; on human Lck enzyme (setting [1]) it was 19 nM.

Consider `COc1cc2cc(C(=O)c3cnn(-c4ccc(Oc5ccccc5F)cc4C)c3N)[nH]c2cc1NS(=O)(=O)CC(=O)NC(C)C` [Example 4-10-011, 2-[[2-[5-amino-1-[4-(2-fluorophenoxy)-2-methylphenyl]pyrazole-4-carbonyl]-5-methoxy-1H-indol-6-yl]sulfamoyl]-N-propan-2-ylacetamide], for which the IC50 is 0.64 nM on human Yes1 enzyme (setting [1]), 25 nM on human Src enzyme (setting [1]) and 3.8 nM at human Lck enzyme (setting [1]).

Turning to `Cc1cc(Oc2c(F)cccc2F)ncc1-n1ncc(C(=O)c2cc3cc(OC4CCN(C5CCCC5)CC4)c(-c4ccccc4Cl)cc3[nH]2)c1N` [Example 5-1-288, [5-amino-1-[6-(2,6-difluorophenoxy)-4-methylpyridin-3-yl]pyrazol-4-yl]-[6-(2-chlorophenyl)-5-(1-cyclopentylpiperidin-4-yl)oxy-1H-indol-2-yl]methanone], the IC50 at human Yes1 enzyme turned out to be 1.9 nM; on human Src enzyme it was 52 nM; at human Lck enzyme, 17 nM.

Turning to `Cc1cc2cc(C(=O)c3cnn(-c4cnc(Oc5c(F)cccc5F)cc4C)c3N)[nH]c2cc1NS(=O)(=O)N1CCOC[C@H]1C` [Example 5-1-292, (3R)-N-[2-[5-amino-1-[6-(2,6-difluorophenoxy)-4-methylpyridin-3-yl]pyrazole-4-carbonyl]-5-methyl-1H-indol-6-yl]-3-methylmorpholine-4-sulfonamide], the IC50 at human Yes1 enzyme was 19 nM; on human Src enzyme, 630 nM; on human Lck enzyme, 88 nM.

For the compound `Cc1cc(Oc2c(F)cccc2Cl)ncc1-n1ncc(C(=O)c2cc3cc(F)c(NS(C)(=O)=O)cc3[nH]2)c1N` [Example 4-2-035, N-[2-[5-amino-1-[6-(2-chloro-6-fluorophenoxy)-4-methylpyridin-3-yl]pyrazole-4-carbonyl]-5-fluoro-1H-indol-6-yl]methanesulfonamide], the IC50 is 1.3 nM on human Yes1 enzyme (setting [1]), 59 nM at human Src enzyme (setting [1]) and 6.7 nM at human Lck enzyme (setting [1]).

Turning to `Cc1cc(Oc2ccccc2F)ccc1-n1ncc(C(=O)c2cc3cc(OC(F)F)c(N4CCN(S(C)(=O)=O)CC4)cc3[nH]2)c1N` [Example 4-23-002, [5-amino-1-[4-(2-fluorophenoxy)-2-methylphenyl]pyrazol-4-yl]-[5-(difluoromethoxy)-6-(4-methylsulfonylpiperazin-1-yl)-1H-indol-2-yl]methanone], the IC50 at human Yes1 enzyme (setting [1]) came to 1.6 nM; at human Src enzyme (setting [1]), 44 nM; on human Lck enzyme (setting [1]) it was 20 nM.

Regarding `Cc1cc(Oc2ccccc2F)ccc1-n1ncc(C(=O)c2cc3cc(F)c(N4CC(C)(C)NS4(=O)=O)cc3[nH]2)c1N` [Example 5-1-302, (5-amino-1-(4-(2-fluorophenoxy)-2-methylphenyl)-1H-pyrazol-4-yl)(6-(4,4-dimethyl-1,1-dioxido-1,2,5-thiadiazolidin-2-yl)-5-fluoro-1H-indol-2-yl)methanone], the IC50 at human Yes1 enzyme was determined as 1.9 nM; at human Src enzyme, 50 nM; on human Lck enzyme, 22 nM.

On to `Cc1cc2cc(C(=O)c3cnn(-c4ccc(Oc5ccccc5)cc4C)c3N)[nH]c2cc1NS(C)(=O)=O` [Example 5-1-108, N-[2-[5-amino-1-(2-methyl-4-phenoxyphenyl)pyrazole-4-carbonyl]-5-methyl-1H-indol-6-yl] methanesulfonamide], for which the IC50 at human Yes1 enzyme was 0.57 nM; on human Src enzyme, 21 nM; at human Lck enzyme, 1.7 nM.

Consider `Cc1cc(Oc2ccccc2F)ccc1-n1ncc(C(=O)c2cc3cc(OC(F)F)c(C4CCN(S(C)(=O)=O)CC4)cc3[nH]2)c1N` [Example 4-17-003, [5-amino-1-[4-(2-fluorophenoxy)-2-methylphenyl]pyrazol-4-yl]-[5-(difluoromethoxy)-6-(1-methylsulfonylpiperidin-4-yl)-1H-indol-2-yl]methanone], for which the IC50 at human Yes1 enzyme (setting [1]) came to 7.4 nM; on human Src enzyme (setting [1]), 23 nM; on human Lck enzyme (setting [1]), 20 nM.

In the case of `COc1cccc(S(=O)(=O)Nc2cc3[nH]c(C(=O)c4cnn(-c5ccc(Oc6ccccc6F)cc5C)c4N)cc3cc2OCC(F)F)c1` [Example 5-1-414, N-[2-[5-amino-1-[4-(2-fluorophenoxy)-2-methylphenyl]pyrazole-4-carbonyl]-5-(2,2-difluoroethoxy)-1H-indol-6-yl]-3-methoxybenzenesulfonamide], the results for the IC50 on human Yes1 enzyme (setting [1]), at human Src enzyme (setting [1]) and at human Lck enzyme (setting [1]) were 5.3 nM, 330 nM and 110 nM, respectively.

`Cc1cc(-n2ncc(C(=O)c3cc4cc(N5CCOCC5)c(N5CCC(N6CCOCC6)CC5)cc4[nH]3)c2N)ccc1Oc1ccccc1F` [Example 5-1-165, [5-amino-1-[4-(2-fluorophenoxy)-3-methylphenyl]pyrazol-4-yl]-[5-morpholin-4-yl-6-(4-morpholin-4-ylpiperidin-1-yl)-1H-indol-2-yl] methanone]: the IC50 at human Yes1 enzyme stood at 1.8 nM; on human Src enzyme, 340 nM; on human Lck enzyme, 37 nM.
